# Assay results taken from patent US11254668B2, “Pyrazolo[1,5-A]pyrazin-4-yl and related derivatives” (Pfizer Inc., priority 2017, dated 2022).
# Read-outs that look alike come from different tables or passages of the source.
# What was measured:
# Assay type in all cases: biochemical
# JAK2 = JAK2 (Homo sapiens (Human), UniProt O60674); experiment: JAK Caliper Enzyme Assay at 1 mM ATP, JAK2
# Method in brief: (§1)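 Human recombinant kinase domain + fluorescently labelled synthetic peptide, 1 mM ATP, RT; enzyme level/time set for 20–30% phosphorylation. EDTA stop. LabChip separation, peak-height % conversion, % effect vs plate controls.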
# JAK1 = JAK1 (Homo sapiens (Human), UniProt P23458); experiment: JAK Caliper Enzyme Assay at 1 mM ATP, JAK1
# Method in brief: (§2)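 Recombinant human kinase domains phosphorylate a fluorescent synthetic peptide at 1 mM ATP, room temperature, with enzyme and time tuned for 20-30% conversion; EDTA-stopped. Product/substrate separated by microfluidic mobility shift; percent effect versus DMSO and positive controls fitted to IC50 (nM).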
# JAK3 = JAK3 (Homo sapiens (Human), UniProt P52333); experiment: JAK Caliper Enzyme Assay at 1 mM ATP, JAK3
# Method in brief: as §2
# TYK2 = TYK2 (Homo sapiens (Human), UniProt P29597); experiment: JAK Caliper Enzyme Assay at 1 mM ATP, TYK2
# Method in brief: as §1
# Sequence of TYK2 (P29597 897-1176): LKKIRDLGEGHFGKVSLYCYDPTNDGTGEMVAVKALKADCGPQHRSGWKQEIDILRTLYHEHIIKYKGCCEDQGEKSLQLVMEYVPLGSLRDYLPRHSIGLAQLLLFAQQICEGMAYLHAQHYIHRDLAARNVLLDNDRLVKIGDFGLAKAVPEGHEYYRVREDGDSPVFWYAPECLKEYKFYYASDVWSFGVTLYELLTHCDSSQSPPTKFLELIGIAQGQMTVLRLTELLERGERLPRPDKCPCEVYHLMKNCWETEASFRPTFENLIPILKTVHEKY
# Sequence of JAK3 (P52333 822-1111): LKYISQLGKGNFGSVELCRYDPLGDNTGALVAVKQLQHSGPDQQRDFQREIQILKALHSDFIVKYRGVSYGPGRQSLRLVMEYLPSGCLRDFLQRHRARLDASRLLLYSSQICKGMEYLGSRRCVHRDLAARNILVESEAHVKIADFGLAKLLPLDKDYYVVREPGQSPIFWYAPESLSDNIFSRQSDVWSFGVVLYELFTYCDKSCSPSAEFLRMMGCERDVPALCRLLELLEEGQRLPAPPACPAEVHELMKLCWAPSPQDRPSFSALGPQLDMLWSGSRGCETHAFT
# Sequence of JAK2 (O60674 849-1124): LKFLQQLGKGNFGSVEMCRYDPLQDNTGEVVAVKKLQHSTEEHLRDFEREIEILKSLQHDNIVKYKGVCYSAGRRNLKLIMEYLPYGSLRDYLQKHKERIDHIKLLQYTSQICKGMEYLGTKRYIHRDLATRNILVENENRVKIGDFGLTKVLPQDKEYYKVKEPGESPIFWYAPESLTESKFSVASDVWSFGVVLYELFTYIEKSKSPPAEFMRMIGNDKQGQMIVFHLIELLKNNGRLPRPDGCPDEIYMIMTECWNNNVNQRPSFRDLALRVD
# Sequence of JAK1 (P23458 875-1153): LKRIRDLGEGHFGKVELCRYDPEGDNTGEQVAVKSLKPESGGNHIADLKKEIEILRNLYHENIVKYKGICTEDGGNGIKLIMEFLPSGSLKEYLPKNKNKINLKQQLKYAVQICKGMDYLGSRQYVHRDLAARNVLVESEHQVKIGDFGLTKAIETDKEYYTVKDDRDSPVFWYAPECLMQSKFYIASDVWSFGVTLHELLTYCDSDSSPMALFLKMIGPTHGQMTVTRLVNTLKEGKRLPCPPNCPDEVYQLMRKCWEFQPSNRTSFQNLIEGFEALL
IC50 (JAK2; JAK Caliper enzyme assay) [nM],IC50 (JAK1; JAK Caliper enzyme assay) [nM],IC50 (JAK3; JAK Caliper enzyme assay) [nM],IC50 (TYK2; JAK Caliper enzyme assay) [nM],IC50 (JAK2) [nM],IC50 (JAK1) [nM],IC50 (JAK3) [nM],IC50 (TYK2) [nM],Compound
5360,> 10000,> 10000,395,–,–,–,–,"CO[C@H]1C[C@@](CC#N)(n2cc(-c3cc(-c4cnn(C)c4)cc4nccn34)cn2)C1 [Example 460, (cis-3-methoxy-1-{4-[7-(1-methyl-1H-pyrazol-4-yl)imidazo[1,2-a]pyridin-5-yl]-1H-pyrazol-1-yl}cyclobutyl)acetonitrile]"
389,1560,> 10000,20,–,–,–,–,"Cc1cc(-c2cc(-c3cnn([C@]4(CC#N)C[C@@H](C#N)C4)c3)n3ccnc3c2)[nH]n1 [Example 461, trans-3-(cyanomethyl)-3-{4-[7-(3-methyl-1H-pyrazol-5-yl)imidazo[1,2-a]pyridin-5-yl]-1H-pyrazol-1-yl}cyclobutanecarbonitrile]"
188,873,> 10000,20,–,–,–,–,"Cc1cc(-c2cc(-c3cnn([C@]4(CC#N)C[C@H](C#N)C4)c3)n3ccnc3c2)n[nH]1 [Example 462, cis-3-(cyanomethyl)-3-{4-[7-(5-methyl-1H-pyrazol-3-yl)imidazo[1,2-a]pyridin-5-yl]-1H-pyrazol-1-yl}cyclobutanecarbonitrile]"
> 10000,> 10000,> 10000,2140,–,–,–,–,"CO[C@H]1C[C@@](CC#N)(n2cc(-c3cc(-c4c[nH]nc4CO)cc4nccn34)cn2)C1 [Example 463, [cis-1-(4-{7-[3-(hydroxymethyl)-1H-pyrazol-4-yl]imidazo[1,2-a]pyridin-5-yl}-1H-pyrazol-1-yl)-3-methoxycyclobutyl]acetonitrile]"
> 10000,> 10000,> 10000,4660,–,–,–,–,"CO[C@H]1C[C@](CC#N)(n2cc(-c3cc(-c4c[nH]nc4CO)cc4nccn34)cn2)C1 [Example 464, [trans-1-(4-{7-[3-(hydroxymethyl)-1H-pyrazol-4-yl]imidazo[1,2-a]pyridin-5-yl}-1H-pyrazol-1-yl)-3-methoxycyclobutyl]acetonitrile]"
859,6000,> 10000,54,–,–,–,–,"Cc1ncc(-c2cc(-c3cnn([C@]4(CC#N)C[C@H](C#N)C4)c3)n3ccnc3c2)[nH]1 [Example 465, cis-3-(cyanomethyl)-3-{4-[7-(2-methyl-1H-imidazol-5-yl)imidazo[1,2-a]pyridin-5-yl]-1H-pyrazol-1-yl}cyclobutanecarbonitrile]"
1260,2700,> 10000,73,–,–,–,–,"N#CC[C@]1(n2cc(-c3cc(-c4c[nH]nc4N)cc4nccn34)cn2)C[C@@H](C#N)C1 [Example 466, cis-3-{4-[7-(3-amino-1H-pyrazol-4-yl)imidazo[1,2-a]pyridin-5-yl]-1H-pyrazol-1-yl}-3-(cyanomethyl)cyclobutanecarbonitrile]"
518,1600,> 10000,51,–,–,–,–,"N#CC[C@]1(n2cc(-c3cc(-c4nc(CO)cs4)cc4nccn34)cn2)C[C@@H](C#N)C1 [Example 467, cis-3-(cyanomethyl)-3-(4-{7-[4-(hydroxymethyl)-1,3-thiazol-2-yl]imidazo[1,2-a]pyridin-5-yl}-1H-pyrazol-1-yl)cyclobutanecarbonitrile]"
1220,1530,> 10000,127,–,–,–,–,"N#CC[C@]1(n2cc(-c3cc(-c4ccc(O)cc4)cc4nccn34)cn2)C[C@@H](C#N)C1 [Example 468, cis-3-(cyanomethyl)-3-{4-[7-(4-hydroxyphenyl)imidazo[1,2-a]pyridin-5-yl]-1H-pyrazol-1-yl}cyclobutanecarbonitrile]"
1040,2390,> 10000,102,–,–,–,–,"N#CC[C@]1(n2cc(-c3cc(-c4ccc(N)nc4)cc4nccn34)cn2)C[C@@H](C#N)C1 [Example 469, cis-3-{4-[7-(6-aminopyridin-3-yl)imidazo[1,2-a]pyridin-5-yl]-1H-pyrazol-1-yl}-3-(cyanomethyl)cyclobutanecarbonitrile]"
1930,6470,> 10000,90,–,–,–,–,"Cn1cc(-c2cc(-c3cnn([C@]4(CC#N)C[C@H](C#N)C4)n3)n3ccnc3c2)cn1 [Example 473, cis-3-(cyanomethyl)-3-{4-[7-(1-methyl-1H-pyrazol-4-yl)imidazo[1,2-a]pyridin-5-yl]-2H-1,2,3-triazol-2-yl}cyclobutanecarbonitrile]"
> 10000,> 10000,> 10000,1120,–,–,–,–,"Cn1cc(-c2cc(-c3cnn(C4(CC#N)CC(C#N)C4)n3)n3ccnc3c2)cn1 (stereo not drawn) [Example 474, trans-3-(cyanomethyl)-3-{4-[7-(1-methyl-1H-pyrazol-4-yl)imidazo[1,2-a]pyridin-5-yl]-2H-1,2,3-triazol-2-yl}cyclobutanecarbonitrile]"
6850,6670,> 10000,462,–,–,–,–,"Cn1cc(-c2cc(-c3cnn(C4(CC#N)CN(CC(F)(F)F)C4)c3)n3ncnc3c2)cn1 [Example 475, [3-{4-[7-(1-methyl-1H-pyrazol-4-yl)[1,2,4]triazolo[1,5-a]pyridin-5-yl]-1H-pyrazol-1-yl}-1-(2,2,2-trifluoroethyl)azetidin-3-yl]acetonitrile]"
486,693,7280,480,–,–,–,–,"Cn1cc(-c2cc(-c3ccn(C4(CC#N)CN(CC(F)(F)F)C4)n3)n3ncnc3c2)cn1 [Example 476, [3-{3-[7-(1-methyl-1H-pyrazol-4-yl)[1,2,4]triazolo[1,5-a]pyridin-5-yl]-1H-pyrazol-1-yl}-1-(2,2,2-trifluoroethyl)azetidin-3-yl]acetonitrile]"
2630,> 10000,> 10000,261,–,–,–,–,"Cn1cc(-c2cn3ncnc3c(-c3cnn(C4(CC#N)CN(CC#N)C4)c3)n2)cn1 [Example 477, 2,2′-(3-{4-[6-(1-methyl-1H-pyrazol-4-yl)[1,2,4]triazolo[1,5-a]pyrazin-8-yl]-1H-pyrazol-1-yl}azetidine-1,3-diyl)diacetonitrile]"
2190,> 10000,> 10000,281,–,–,–,–,"Cn1cc(-c2cn3ncnc3c(-c3cnn(C4(CC#N)CN(S(C)(=O)=O)C4)c3)n2)cn1 [Example 478, [3-{4-[6-(1-methyl-1H-pyrazol-4-yl)[1,2,4,5-a]pyrazin-8-yl]-1H-pyrazol-1-yl}-1-(methylsulfonyl)azetidin-3-yl]acetonitrile]"
24,169,3400,11,–,–,–,–,"Cn1cc(-c2cc3nccnc3c(-c3cnn(C4(CC#N)CN(CC(F)(F)F)C4)c3)n2)cn1 [Example 479, [3-{4-[7-(1-methyl-1H-pyrazol-4-yl)pyrido[3,4-b]pyrazin-5-yl]-1H-pyrazol-1-yl}-1-(2,2,2-trifluoroethyl)azetidin-3-yl]acetonitrile]"
17,145,3750,11,–,–,–,–,"Cn1cc(-c2cc3nccnc3c(-c3cnn(C4(CC#N)CN(CC#N)C4)c3)n2)cn1 [Example 480, 2,2′-(3-{4-[7-(1-methyl-1H-pyrazol-4-yl)pyrido[3,4-b]pyrazin-5-yl]-1H-pyrazol-1-yl}azetidine-1,3-diyl)diacetonitrile]"
3530,> 10000,> 10000,1370,–,–,–,–,Cn1cc(-c2cc3nccnc3c(-c3ccn(C4(CC#N)CN(CC#N)C4)n3)n2)cn1 [Example 481]
> 10000,> 10000,> 10000,3790,–,–,–,–,"Cn1cc(-c2cc3nccnc3c(-c3ccn(C4(CC#N)CN(CC(F)(F)F)C4)n3)n2)cn1 [Example 482, [3-{3-[7-(1-methyl-1H-pyrazol-4-yl)pyrido[3,4-b]pyrazin-5-yl]-1H-pyrazol-1-yl}-1-(2,2,2-trifluoroethyl)azetidin-3-yl]acetonitrile]"
–,–,–,–,10,86,2000,20,"[3-(4-{7-[1-(oxetan-3-yl)-1H-pyrazol-4-yl]-1,6-naphthyridin-5-yl}-1H-pyrazol-1-yl)-1-(2,2,2-trifluoroethyl)azetidin-3- [Example 10]"

Compound,IC50 (JAK2; JAK Caliper enzyme assay) [nM],IC50 (JAK1; JAK Caliper enzyme assay) [nM],IC50 (JAK3; JAK Caliper enzyme assay) [nM],IC50 (TYK2; JAK Caliper enzyme assay) [nM],IC50 (JAK2) [nM],IC50 (JAK1) [nM],IC50 (JAK3) [nM],IC50 (TYK2) [nM]
"N#CC[C@]1(n2cc(-c3cc(-c4cccc(C(N)=O)n4)cc4nccn34)cn2)C[C@H](C#N)C1 [Example 470, 6-(5-{1-[cis-3-cyano-1-(cyanomethyl)cyclobutyl]-1H-pyrazol-4-yl}imidazo[1,2-a]pyridin-7-yl)pyridine-2-carboxamide]",147,620,> 10000,25,–,–,–,–
